# Assays:
# [1] = tested on: monocyte-derived dendritic cells (MoDCs); test: NAT_29 dose response, IL-10 secretion from MoDCs co-stimulated with LPS (AlphaLISA); type: cell-based, human; conditions: 0.1 to 1000 nM; LPS 100 ng/ml; 24 hours
# Description: (§1) To investigate the IL-10 inducing/enhancing capacity of NAT_29, in vitro IL-10 secretion of human immune cells in the presence of different doses of NAT_29 was tested. Briefly, human CD14+ monocytes were isolated from peripheral blood mononuclear cells (PBMCs) from healthy human volunteers by density gradient centrifugation using SepMate™-50 IVD tubes (Stemcell, Ref. 85460). The obtained PBMCs were washed thrice with Dulbeccos's phosphate buffered saline (PBS, Sigma, D88537) and lysed 10 min at room temperature in Red blood Lysis buffer 1X (Miltenyi Biotec, 130-094-183). Cells were washed with MACS buffer (Miltenyi Biotec, 130-091-221) and counted using the trypan blue dye exclusion method. CD14+monocytes were sorted using anti-human CD14 Microbeads (Miltenyi Biotec, 130-050-201) as per manufacturer's protocol. Positive CD14+ fractions were collected and seeded at 2×10^4 cells per well in 384 well plates in IMDM medium (Gibco, 12440-046) supplemented with 10% FBS and 1X antibiotic solution.
# Monocyte-derived dendritic cells (MoDCs) were derived from the differentiation of CD14+ cells, obtained after the selective sorting. […]
# (§2) […] IL-10 secretion were measured at 24 hours by AlphaLISA® on cell supernatants according to the supplier's protocol and read on an Envision plate reader (Perkin Elmer).
# TNBS-induced colitis = test: Acute colitis induced by TNBS in rats (Wallace score, colon Lipocalin-2, mortality); type: in vivo, Sprague-Dawley rats; conditions: intrarectal; for Wallace score: once a day, evaluated 4 days after TNBS
# From the text: Next, anti-inflammatory properties of the NAT_29 polypeptide (SEQ ID NO: 1) have been evaluated in the 2,4,6-trinitrobenzene sulfonic acid (TNBS)-induced colitis model. The model of colitis induced by TNBS in rats is a validated animal model to evaluate the anti-inflammatory properties of drugs in intestinal bowel diseases (IBD). TNBS induces deep inflammation resulting in necrosis (with transmural destruction of the intestine wall) of the colon. This model is well-characterized, reliable, reproducible, and admitted by regulatory authorities in IBD (e.g., as described in Antoniou, E., et al. (2016). The TNBS-induced colitis animal model: An overview. Annals of medicine and surgery, vol. 11, 9-15, which is incorporated herein in its entirety).
# To this end, the NAT_29 polypeptide (SEQ ID NO: 1) was administered by intrarectal instillation at two different concentrations (1 and 0.1 μM) in the model of acute colitis induced by TNBS (intrarectal administration at 80 mg/kg) in Sprague-Dawley rats. The anti-inflammatory effects were evaluated at the macroscopic level using validated score of Wallace and compared to those induced by the positive control (5-ASA) administered also by intrarectal instillation.
# Resolution of inflammation was also evaluated using colon Lipocalin-2 (Lcn-2) quantification. Lipocalin-2, also known as neutrophil gelatinase-associated lipocalin (NGAL), is considered as a clinically relevant biomarker of IBD. […] In rodent models of colitis, a strong association has been shown between elevated levels of Lcn-2 and colitis severity.
# Male Sprague-Dawley rats (Body weight: around 100-150 g) were allocated randomly and blindly 4 per cage and acclimated for one week. Rats were obtained from Janvier Laboratoires, Le Genest Saint-Isle, France.
# The tested products were administered once a day by intrarectal instillation (500μl) in a prophylactic and therapeutic mode starting at day -5, i.e. 5 days before colitis induction (DO) and until euthanasia at D4, corresponding to 9 treatment days in total.
# For colitis induction, Sprague Dawley rats were anesthetized for 2 hours using a subcutaneous injection of xylazine at 12.5 mg/kg/ketamin at 25 mg/kg. […] The TNBS solution at 80 mg/kg was prepared based on the mean body weight of rats, which is recorded before the TNBS solution preparation.
# NAT_29 was solubilized in PBS and the active concentration for animal treatment was calculated assuming a maximum volume of colon-rectum content in rat of 3.5ml. […]
# Animals were sacrificed 4 days (D4) after TNBS administration (DO) for evaluation of the intensity of colitis. Samples from distal colon were collected and used for macroscopic assessments and lipocalin quantification. […]
# human CD14+ monocytes = test: NAT_29 dose response, IL-10 secretion from monocytes co-stimulated with LPS (AlphaLISA); type: cell-based; conditions: LPS 100 ng/ml, 24 hours
# Description: as §1, §2
sequence,measurement,setting,value
KKGSRSCFFIYLDRGTKKGSRSCFFYLP (NAT_29) [28-amino-acid fragment of microbiota protein ID3166],IL-10 secretion from MoDCs,[1],highest IL-10 levels were measured in both cell types at the highest concentration of NAT_29 tested
same,Wallace score,TNBS-induced colitis; final concentration of 0.1 μM,protective effect (albeit not significant)
same,lipocalin-2 level in the colon (ELISA),"TNBS-induced colitis; final concentration of 0.1 μM, 4 days after TNBS",slight decrease of lipocalin-2 level (albeit not significant)
same,Wallace score,TNBS-induced colitis; final concentration of 1 μM,statistically protective effect
same,Lipocalin levels in the colon (ELISA),"TNBS-induced colitis; final concentration of 1UM, 4 days after TNBS",significant decrease of Lipocalin levels
same,IL-10 secretion from monocytes,human CD14+ monocytes; 0.1 to 1000 nM,highest IL-10 levels were measured in both cell types at the highest concentration of NAT_29 tested
same,sensitivity of monocytes versus MoDCs to the action of NAT_29,human CD14+ monocytes; IL-10 secretion,monocytes appeared to be more sensitive than MoDCs
